Measurements: PubChem BioAssay (NCI)
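In this assay, cells in 96-well plates receive the compound at five concentrations for 48 hours. Endpoints are linearly interpolated between the surrounding concentrations. Abbreviation: GI50, concentration required for 50% inhibition of growth. Definition used: TGI = concentration required for complete inhibition of growth.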

Experiments:
Experiment in all cases: NCI tumour cell line growth inhibition, 48 h
[1] = system: ACHN renal
[2] = system: DU-145 prostate
[3] = system: HT29 colon
[4] = system: NCI-H460 lung
[5] = system: NCI-H522 lung
[6] = system: OVCAR-4 ovarian
[7] = system: SF-268 CNS
[8] = system: SF-295 CNS
[9] = system: UACC-62 melanoma
[10] = system: PC-3 prostate

| SMILES | TGI [1] | TGI [2] | TGI [3] | TGI [4] | TGI [5] | TGI [6] | TGI [7] | TGI [8] | TGI [9] | TGI [10] | GI50 [1] | GI50 [2] | GI50 [3] | GI50 [4] | GI50 [5] | GI50 [6] | GI50 [7] | GI50 [9] |
| --- | --- | --- | --- | --- | --- | --- | --- | --- | --- | --- | --- | --- | --- | --- | --- | --- | --- | --- |
| C=C(CN(C)C)C(=O)c1ccccc1Cl | 32.5 µM | > 100 µM | 34.4 µM | > 100 µM | 15.6 µM | 40.8 µM | 42.7 µM | > 100 µM | 34.2 µM |  |  |  |  |  |  |  |  |  |
| C#C[C@]1(O)[C@@H](CO)O[C@@H](n2ccc(=O)[nH]c2=O)[C@@H]1O | 0.602 µM | 0.695 µM | > 100 µM | > 100 µM | 1.64 µM | 45.3 µM |  | > 45.2 µM | 3.56 µM | > 29.6 µM |  |  |  |  |  |  |  |  |
| CCC1=C(CC2NCCc3cc(OC)c(OC)cc32)CC2c3ccccc3CCN2C1 (centres undefined) | > 100 µM | > 100 µM | 20.6 µM | 25.1 µM | 29.1 µM | > 100 µM | > 100 µM | 76.3 µM | 28.8 µM | 78.3 µM |  |  |  |  |  |  |  |  |
| Cc1ccc([N+](=O)[O-])cc1S(=O)(=O)Nc1ccc(C2=NN(C(=O)c3ccccc3)C(c3ccccc3O)C2)cc1 (centres undefined) | 47.8 µM | 41.5 µM | 62.5 µM |  | 28.6 µM | 42.8 µM | 45.9 µM | > 100 µM |  | 29 µM |  |  |  |  |  |  |  |  |
| O=C1CNc2cc(N3CCCCC3)ccc2N1 | > 100 µM | > 100 µM | 24.4 µM | > 100 µM | > 100 µM | > 100 µM |  | > 100 µM | > 100 µM | > 100 µM |  |  |  |  |  |  |  |  |
| CN(CCc1ccccn1)c1ccc2c(c1)Cc1ccccc1-2 | > 100 µM | > 100 µM | > 100 µM | > 100 µM | 62.1 µM | 97.7 µM | > 100 µM | 41.1 µM | > 100 µM | 23.9 µM |  |  |  |  |  |  |  |  |
| O=C(/C=C/c1ccc(O)c(O)c1)O[C@H]1CCCC[C@@H]1OC(=O)/C=C/c1ccc(O)c(O)c1 | 38.3 µM | 41.8 µM |  | > 100 µM | 20.8 µM | > 100 µM | 38.8 µM | 33.3 µM | 27.4 µM | > 100 µM |  |  |  |  |  |  |  |  |
| O=C(NN1CCCCC1)c1cc2cc(CCl)ccc2oc1=O | > 100 µM | > 100 µM | 33 µM | 31.1 µM | 22.7 µM | 36.4 µM | 32.9 µM | 42 µM | 85.8 µM | 30.4 µM |  |  |  |  |  |  |  |  |
| COc1ccc2c3c([nH]c2c1)[C@H](C=C(C)C)N1C(=O)[C@@H]2CCCN2C(=O)[C@@H]1C3 | > 100 µM | > 100 µM | > 100 µM | > 100 µM | > 100 µM | > 100 µM | > 100 µM | > 100 µM | > 100 µM | > 100 µM |  |  |  |  |  |  |  |  |
| CS(=O)(=O)Nc1cccc(-c2ccc3ncnc(Nc4cncc(Cl)c4)c3c2)c1 | > 100 µM | > 100 µM | 4.65 µM | > 100 µM | 4.93 µM | > 100 µM | > 100 µM |  | 3.86 µM |  | 1.11 µM | 1.16 µM | 1.85 µM | 3.18 µM | 1.75 µM | 4.16 µM | 2.26 µM | 1.75 µM |
| COc1ccc(-n2nnc3c(C#N)c(C)c(-c4ccccc4)n3c2=O)cc1 | > 100 µM | 8 µM | > 100 µM | > 39.3 µM |  | > 100 µM | > 100 µM | > 27.5 µM | > 100 µM | > 100 µM |  |  |  |  |  |  |  |  |
